In test [1] the test system is DU145 cells. Kind of test: WST-1 cell viability assay. Type of test: cell-based. As to the method: In order to test the activity of MMSET inhibitors on cell viability, a WST-1 cell viability assay (Roche) was performed. The aggressive prostate cell line DU145 was treated with different doses of small molecules dissolved in DMSO for 96 hours before performing the WST-1 assay according to manufacturer's protocol. Each experiment was performed 8 times and absorbance was measured at 450 nm.
In general terms: Tetrazolium assays rely on reduction of a dye to a coloured formazan, in cell work by metabolically active cells.

For a further test, the system named is xenograft tumors. Kind of test: Xenograft tumors. The note with it: in vivo.
The test system of a further test is multiple cancers. The test can be described thus: Cell viability (FIGS. 11-26). It counts as cell-based.
Test [2] has as its system histone H3 methylation in DU145 cells. Kind of test: Immunoblot analyses of histone H3 methylation modifications. It counts as cell-based. As to the method:
DU145 cells were incubated with multiple doses of small molecule inhibitors for 96 hours or were subjected to siRNA-mediated MMSET knockdown as described herein (e.g., using sh1 GGUCCAAAGUGUCGGGUUA or sh2 GUCAGUGGAGGAGCGGAA). Cells were homogenized in NP40 lysis buffer (50 mM Tris-HCl, 1% NP40, pH 7.4, Sigma, St. Louis, Mo.) with Complete proteinase inhibitor mixture (Roche, Indianapolis, Ind.). Ten micrograms of each protein extract were boiled in sample buffer, separated by SDS-PAGE, and transferred onto Polyvinylidene Difluoride membrane (GE Healthcare). The membrane was incubated for one hour in blocking buffer and incubated overnight at 4° C. with the following antibodies: anti-mono, di, and trimethylated H3-27, anti-di and trimethylated H3-k36, and anti-trimethylated H3-K9. Following a wash with TBS-T, the blot was incubated with horseradish peroxidase-conjugated secondary antibody. Signals were visualized by enhanced chemiluminescence as described by the manufacturer (GE Healthcare). The blots were re-probed with anti-H3 and β-actin for confirmation of equal loading.
On the technique in general: A western blot detects proteins with antibodies after separation by electrophoresis.

Test [3] relates to DU145 cells. Kind of test: Basement membrane matrix invasion assay. It counts as cell-based. As to conditions: 48 hours. As to the method:
DU145 cells were used for invasion assays. In some experiments, MMSET knockdown was performed by transfecting cells with two different MMSET-specific siRNAs. Forty-eight hours post-transfection, cells were seeded onto the basement membrane matrix (EC matrix, Chemicon, Temecula, Calif.) present in the insert of a 24-well culture plate. In some experiments, MMSET was inhibited using a small molecule inhibitor (MCTP39). Fetal bovine serum was added to the lower chamber as a chemoattractant with or without 2 doses of small molecule inhibitors. After 48 hours, the non-invading cells and EC matrix were gently removed with a cotton swab. Invasive cells located on the lower side of the chamber were measured colorimetrically by treating with 150 μl of 10% acetic acid and the absorbance measured at 560 nm using a spectrophotometer.

The test system of test [4] is translocation positive MM cell lines. Kind of test: Specificity in MM cell lines. Type of test: cell-based.

SMILES strings stand for the structures. pIC50: −log10 of the molar value. “Also recorded” adds a separate entry of the source. Where two headings read alike, the source gives them in different places.

Turning to `NNc1nc2ccccc2nc1S` [MCTP39, 3-hydrazinylquinoxaline-2-thiol], in the test on DU145 cells [1], the “proliferation of DU145 cells” value is “affected proliferation and invasion of DU145 cells even at very low concentration”. In the test on DU145 cells [1] (Homo sapiens, DU-145, 96 hours, WST-1), the pIC50 – broadly, −log10 of the IC50, conventionally taken in molar units – was > 5.52. Moreover, in the test on xenograft tumors, the “tumor size / tumor volume in xenograft tumors” value is reported as “decreased; also recorded: reduces tumor volume”. The cell viability result in the test with multiple cancers was “decreased”. Also, in test [2], the H3K27 trimethylation result is listed as “dose-dependent decreased”, the H3K36 dimethylation entry is recorded as “dose-dependent decreased” and the H3K36 trimethylation entry is listed as “dose-dependent decreased”. Moreover, the H3K27 dimethylation entry in test [2] (96 hours) is given as “dose-dependent decreased”. Further, in test [2] (listed as N39), the H3K27 trimethylation entry was “reduced”, the H3K36 dimethylation result is “reduced” and the H3K36 trimethylation result is on record as “reduced”. In addition, the “invasion of DU145 cells” value with DU145 cells [3] is “affected proliferation and invasion of DU145 cells even at very low concentration”. Moreover, the “specificity toward translocation positive MM cell lines” value in test [4] is on record as “shows specificity toward translocation positive MM cell lines”.

Source of the values: patent publication US8697407B2, “Compositions and methods for inhibiting MMSET” (The Regents of The University of Michigan, priority 2010, dated 2014).
